“Also recorded” adds a separate entry of the source.
Key:
Assay type in all cases: in vivo, human
[1] = tested on: patients with neuropathic pain; test: Case reports: relief of neuropathic pain by EGFR inhibitors (0-10 NRS / Brief Pain Inventory); details: for Phantom-limb pain response: Case 5, panitumumab then erlotinib; for NP relief (summary of the cases): conditions where proximal and/or distal parts of peripheral nerves were affected
Method: The term “in vivo” refers to the natural environment (e.g., an animal or a cell) and to processes or reaction that occur within a natural environment. […] Pain interference is assessed using the Brief Pain Inventory (BPI). BPI is used to evaluate pain interference with the following: (a) general activity, (b) mood, (c) walking ability, (d) normal work, (e) relations with other people, (f) sleep, and (g) enjoyment of life. Total score for pain interference is calculated as: (Mean score of non-missing questions)×(7/number of non-missing questions). If four or more questions are missing, the pain interference total score is set to missing.
In some cases, the patients were asked to complete a BPI short form daily, just before and during the EGFR inhibition, in order to document their neuropathic pain and thus, help us to judge their responses and guide treatment decisions.

[2] = Case reports: concomitant analgesic / opioid requirement during EGFR inhibition
[3] = Case reports: side effects of EGFR inhibitors
[4] = Case reports: performance status, function, quality of life and accompanying symptoms; details: Case 7, CIPN; after six to eight weeks of treatment
[5] = Case 2, yrs, complex regional pain syndrome type 1 of the right hand, sequence cetuximab, panitumumab, cetuximab, gefitinib, erlotinib
[6] = Case 14, panitumumab then erlotinib, four weeks
[7] = Case 2, CRPS1, after gefitinib discontinuation, 10/10 before treatment

Compound: C#Cc1cccc(Nc2ncnc3cc(OCCOC)c(OCCOC)cc23)c1 [erlotinib]
- Neuropathic pain response [1, 5]: pain-free upon conversion from panitumumab to erlotinib; also recorded: has not recurred since; also recorded: continues to be completely resolved
- Phantom-limb pain response [1]: reported phantom-limb pain improvement
- Least degree of pain ([1]; Case 9, 10 days on erlotinib 150 mg tablets): 0 /10
- Onset of effect ([1]; Case 9, oral erlotinib 150 mg): four to five days
- Pain relief ([1]; Case 13, 150 mg oral erlotinib after panitumumab, over the following three weeks): up to 70%
- Pain reduction ([1]; Case 13, four weeks after starting erlotinib, week with slightly worsening pain, uses omeprazole): 60%
- Average pain ([1]; Case 14, four weeks after start of EGFR-I (panitumumab), one week after starting erlotinib, around 5 before): 4 out of 10
- Maximum pain ([1]; Case 14, four weeks after start of EGFR-I, one week after starting erlotinib, 10 before): 6 0-10 pain scale
- NP relief (summary of the cases) [1]: led to complete NP relief
- Neuropathic pain response (BPI scores, FIG. 7 lower panel) ([1]; previously EGFR-I naive patient (case 9)): responded to upfront treatment
- Analgesic requirement ([2]; Case 5): opioid requirement diminished
- Side effect ([3]; Case 9, erlotinib): dry skin grade II which was transient
- Side effects [3, 6]: has not experienced any side effects to date

Compound: panitumumab
- Pain score 48 hours after panitumumab infusion [1, 7]: 3 /10
- Pain score the next day after panitumumab infusion [1, 7]: 5 /10
- Neuropathic pain response [1, 5]: recurrence of severe pain on the very same evening as the panitumumab infusion; also recorded: completely gone again on the third day; also recorded: dramatic increase in pain just hours after infusion; also recorded: dramatic pain relief within hours
- Phantom-limb pain response [1]: again effectively alleviated within one day after the second infusion
- Time to complete relief after first infusion ([1]; Case 6, panitumumab): ≤ 24 h
- Pain reduction ([1]; Case 7, CIPN, after four to six weeks (2-3 doses) of panitumumab): 60-70%
- Maximum pain intensity ([1]; Case 7, CIPN, two weeks after first panitumumab, only lasted a few seconds): ten out of ten
- Duration of painful bursts ([1]; Case 7, CIPN, two weeks after first panitumumab, several minutes before): five to ten seconds
- Herpes Zoster related symptoms ([1]; Case 8, herpetic neuralgia Th5, Day 20, panitumumab infusion, bursts 10/10 on days 16-20): pain had completely resolved.
- Herpes Zoster related symptoms: intensity, frequency and duration of painful bursts ([1]; Case 8, Day 34): improve (since day 21).
- Time to complete pain relief, into the infusion ([1]; Case 8, panitumumab infusion on day 20): approximately 10 minutes
- Pain level at recurrence ([1]; Case 10, 15 days after the initial panitumumab infusion): 9 out of 10
- Pain intensity during the following weeks ([1]; Case 10, after first panitumumab 6 mg/kg): 2-3 NRS
- Neuropathic pain response ([1]; Case 11, two days after panitumumab infusion and on continued treatment every 2 weeks): completely gone; also recorded: NP has not recurred
- Reported pain reduction ([1]; Case 12, after two panitumumab infusions): 75%
- Duration of analgesic effect ([1]; Case 12, first panitumumab infusion): lasted only one week
- Worst pain level after second infusion ([1]; Case 12, second panitumumab infusion after two weeks, pregabalin reduced from 375 mg to 225 mg): around three
- Peak NP in occasional episodes ([1]; Case 12, three months after initial EGFR-I administration): 3
- Average NP ([1]; Case 12, three months after initial EGFR-I administration, treatment on hold): 2
- Reduction in pain intensity ([1]; Case 13, yrs, CIPN (oxaliplatin), two days after 6 mg/kg panitumumab i.v.): 20-30%
- Distribution of pain ([1]; Case 13, two days after panitumumab, pain only located distally in feet): the pain in the legs had completely disappeared
- Pain further reduced by, of baseline levels ([1]; Case 13, two weeks after the panitumumab infusion): 30-40%
- Worst pain in the first two weeks after the infusion ([1]; Case 14, panitumumab, amitryptiline reduced from 40 mg to 20 mg, exacerbations 10 out of 10 before): 6-7 out of 10
- Time to pain recurrence after panitumumab ([1]; case 3): roughly 20 days
- NP relief (summary of the cases) [1]: led to complete NP relief
- Analgesic requirement ([2]; Case 5): required less breakthrough pain medication
- Analgesic requirement ([2]; Case 6, during panitumumab treatment): no longer required analgesics
- Opiate requirement ([2]; Case 11, two days after panitumumab, 100 mg depot morphine per 24 hours before): no longer required opiates
- Side effects ([3]; Case 11, panitumumab every 2 weeks): transient acne; also recorded: has otherwise not experienced any side effects
- Side effect ([3]; Case 12, panitumumab): skin rash grade 2-3
- Side effects [3, 6]: has not experienced any side effects to date
- Sensibility [4]: beginning to regain sensibility in their fingers

Source: patent US11396548B2, “EGFR targeted therapy of neurological disorders and pain” (Sykehuset Sørlandet HF, priority 2012, dated 2022)
